US11946094B2, “Combination therapies and methods of use thereof” (Augusta University Research Institute, Inc., priority 2017, dated 2024)
Counter-ions that a name gives are not always drawn. Like-named read-outs stand apart in the source and are kept apart here.

Tested on: OVCAR-8 cells
Assay: Drug-siRNA combination screen: 346-compound anticancer library at 100 nM, CCK-8 viability
[1] = OVCAR-8, drug 100 nM plus siRNA knockdown of each of 18 genes, distance VAB−VA×VB in SD, single gene contributes at most +5 / −5, negative = synergy, positive = antagonism
[2] = OVCAR-8, drug 100 nM, panel of 18 siRNA knockdowns
[3] = OVCAR-8, drug 100 nM, siRNA knockdown

CC(C)C[C@H](NC(=O)CNC(=O)c1cc(Cl)ccc1Cl)B(O)O [Ixazomib]
Score (sum of observed SD values for 18 genes) [1]: -52.76 SD

Nc1nc(Nc2ccc(S(N)(=O)=O)cc2)nn1C(=O)c1c(F)cccc1F [JNJ - 7706621]
Score (sum of observed SD values for 18 genes) [1]: 5.07 SD

Cn1cc(-c2ccc3nnc(C(F)(F)c4ccc5ncccc5c4)n3n2)cn1 [JNJ−38877605]
Score (sum of observed SD values for 18 genes) [1]: 2.72 SD

O=c1cc(-c2cccc3c2Sc2ccccc2S3)oc(N2CCOCC2)c1 [KU-55933]
Score (sum of observed SD values for 18 genes) [1]: −14.37 SD

C[C@@H]1CN(CC(=O)Nc2ccc3c(c2)Cc2cccc(-c4cc(=O)cc(N5CCOCC5)o4)c2S3)C[C@H](C)O1 [KU-60019]
Score (sum of observed SD values for 18 genes) [1]: −25.5 SD

O=C(Cc1ccc(-c2ccc(OCCN3CCOCC3)cc2)cn1)NCc1ccccc1 [KX2-391]
Score (sum of observed SD values for 18 genes) [1]: 13.4 SD

COc1ccc(-c2ccc3c(N4CCOCC4)nc(N4C[C@@H](C)O[C@@H](C)C4)nc3n2)cc1CO [Ku-0063794]
Score (sum of observed SD values for 18 genes) [1]: −41.94 SD

c1ccc2c(-c3cnn4cc(-c5ccc(N6CCNCC6)cc5)cnc34)ccnc2c1 [LDN193189]
Score (sum of observed SD values for 18 genes) [1]: −28.37 SD

O=c1cc(N2CCOCC2)oc2c(-c3ccccc3)cccc12 [LY294002]
Score (sum of observed SD values for 18 genes) [1]: −8.41 SD

c1ccc(-c2nn3c(c2-c2ccnc4cc(OCCN5CCOCC5)ccc24)CCC3)nc1 [LY2109761]
Score (sum of observed SD values for 18 genes) [1]: −40.45 SD

Cc1cccc(-c2nn3c(c2-c2ccnc4ccc(C(N)=O)cc24)CCC3)n1 [LY2157299]
Score (sum of observed SD values for 18 genes) [1]: −0.82 SD

CC(C)(C)Cn1c(N)nc2ccc(-c3[nH]c(C(C)(C)C)nc3-c3ccc(F)cc3)nc21 [LY2228820]
Score (sum of observed SD values for 18 genes) [1]: −30.98 SD

Cc1cnc(NC(=O)Nc2cc(Br)c(C)cc2OC[C@@H]2CNCCO2)cn1 [LY2603618]
Score (sum of observed SD values for 18 genes) [1]: -52.09 SD
synergy / antagonism of drug with gene knockdowns, in words [2]: high level of synergism

COc1cc2nccc(Oc3ccc(NC(=O)NC4CC4)c(Cl)c3)c2cc1C(N)=O [Lenvatinib]
Score (sum of observed SD values for 18 genes) [1]: −27.5 SD

Nc1nc(=O)c2c([nH]1)NCC(CNc1ccc(C(=O)N[C@@H](CCC(=O)[O-])C(=O)[O-])cc1)N2C=O.[Ca+2] (stereo partly drawn) [Leucovorin Calcium]
Score (sum of observed SD values for 18 genes) [1]: 1.29 SD

Cc1ccc(F)c(NC(=O)Nc2ccc(-c3cccc4[nH]nc(N)c34)cc2)c1 [Linifanib]
Score (sum of observed SD values for 18 genes) [1]: −25.28 SD

C[C@]1(O)C[C@@H](c2nc(-c3ccc4ccc(-c5ccccc5)nc4c3)c3c(N)nccn32)C1 [Linsitinib]
Score (sum of observed SD values for 18 genes) [1]: −28.72 SD

O=C(O)c1nn(Cc2ccc(Cl)cc2Cl)c2ccccc12 [Lonidamine]
Score (sum of observed SD values for 18 genes) [1]: −16.85 SD

O=C(O)CC[C@H]1CC[C@@](c2cc(F)ccc2F)(S(=O)(=O)c2ccc(Cl)cc2)CC1 [MK-0752]
Score (sum of observed SD values for 18 genes) [1]: −34.92 SD

C=CCn1c(=O)c2cnc(Nc3ccc(N4CCN(C)CC4)cc3)nc2n1-c1cccc(C(C)(C)O)n1 [MK-1775]
Score (sum of observed SD values for 18 genes) [1]: -64.04 SD
synergy / antagonism of drug with gene knockdowns, in words [2]: Frequently among the top synergizing pairs
number of genes (of 18) with high synergy with the drug [3]: 13 genes

Cl.Cl.NC1(c2ccc(-c3nc4ccc5n[nH]c(=O)n5c4cc3-c3ccccc3)cc2)CCC1 [MK-2206 2HCI]
Score (sum of observed SD values for 18 genes) [1]: −23.29 SD

CC(C)C[C@H](NC(=O)CNC(=O)c1cc(Cl)ccc1Cl)B1OC(=O)C(CC(=O)O)(CC(=O)O)O1 [MLN9708]
Score (sum of observed SD values for 18 genes) [1]: −34 SD

Cc1ccc(NC(=O)c2ccc(CN3CCN(C)CC3)cc2)cc1Nc1nc(-c2cccnc2)cs1 [Masitinib]
Score (sum of observed SD values for 18 genes) [1]: −4.23 SD

C[C@H]1C[C@H]2[C@@H]3CCC4=CC(=O)C=C[C@]4(C)[C@H]3C(=O)C[C@]2(C)[C@@]1(O)C(=O)CO [Meprednisone]
Score (sum of observed SD values for 18 genes) [1]: −25.82 SD

O=S(=O)(O)CCS [Mesna]
Score (sum of observed SD values for 18 genes) [1]: −15.88 SD

CC#C[C@]1(O)CC[C@H]2[C@@H]3CCC4=CC(=O)CCC4=C3[C@@H](c3ccc(N(C)C)cc3)C[C@@]21C [Mifepristone]
Score (sum of observed SD values for 18 genes) [1]: −22.75 SD

Nc1ccccc1NC(=O)c1ccc(CNc2nccc(-c3cccnc3)n2)cc1 [Mocetinostat]
Score (sum of observed SD values for 18 genes) [1]: 1.27 SD
synergy / antagonism of drug with gene knockdowns, in words [2]: frequently antagonized by knockdown of specific genes

N#CCNC(=O)c1ccc(-c2ccnc(Nc3ccc(N4CCOCC4)cc3)n2)cc1 [Momelotenib]
Score (sum of observed SD values for 18 genes) [1]: −0.52 SD

CC1(C)CNc2cc(NC(=O)c3cccnc3NCc3ccncc3)ccc21 [Motesanib Diphosphate]
Score (sum of observed SD values for 18 genes) [1]: −12.16 SD

COc1c(C)c2c(c(O)c1C/C=C(\C)CCC(=O)OCCN1CCOCC1)C(=O)OC2 [Mycophenolate mofetil]
Score (sum of observed SD values for 18 genes) [1]: −3.2 SD

COc1c(C)c2c(c(O)c1C/C=C(\C)CCC(=O)O)C(=O)OC2 [Mycophenolic acid]
Score (sum of observed SD values for 18 genes) [1]: −20.87 SD

O=c1cc(N2CCOCC2)oc2c(-c3cccc4c3sc3ccccc34)cccc12 [NU7441]
Score (sum of observed SD values for 18 genes) [1]: −10.42 SD

CCN1CCN(Cc2ccc(-c3cc4c(N[C@H](C)c5ccccc5)ncnc4[nH]3)cc2)CC1 [NVP-AEE788]
Score (sum of observed SD values for 18 genes) [1]: −41.08 SD

Cl.Cl.Fc1cc(-c2cccc3ncc(-c4cnn(C5CCNCC5)c4)nc23)cc(F)c1CN1CCOCC1 [NVP-BSK805 2HCI]
Score (sum of observed SD values for 18 genes) [1]: −43.77 SD

CC1(C)CCC(c2ccc(Cl)cc2)=C(CN2CCN(c3ccc(C(=O)NS(=O)(=O)c4ccc(N[C@H](CCN5CCOCC5)CSc5ccccc5)c(S(=O)(=O)C(F)(F)F)c4)cc3)CC2)C1 [Navitoclax]
Score (sum of observed SD values for 18 genes) [1]: −13.79 SD

CCOc1cc2ncc(C#N)c(Nc3ccc(OCc4ccccn4)c(Cl)c3)c2cc1NC(=O)/C=C/CN(C)C [Neratinib]
Score (sum of observed SD values for 18 genes): −39.86 SD
synergy / antagonism of drug with gene knockdowns, in words: significant synergy with nine or more genes

COC(=O)c1ccc2c(c1)NC(=O)/C2=C(\Nc1ccc(N(C)C(=O)CN2CCN(C)CC2)cc1)c1ccccc1 [Nintedanib]
Score (sum of observed SD values for 18 genes) [1]: −36.11 SD

COC(=O)Nc1nc2ccc(C(=O)c3cccs3)cc2[nH]1 [Nocodazole]
Score (sum of observed SD values for 18 genes) [1]: −7.78 SD

COc1ccc(C2=N[C@@H](c3ccc(Cl)cc3)[C@@H](c3ccc(Cl)cc3)N2C(=O)N2CCNC(=O)C2)c(OC(C)C)c1 [Nutlin-3]
Score (sum of observed SD values for 18 genes) [1]: −5.25 SD

C#Cc1cccc(Nc2ncnc3cc(OCCOC)c(OCCO)cc23)c1 [OSI-420]
Score (sum of observed SD values for 18 genes) [1]: −27.08 SD

O=C(Nc1ccc(OC(F)(F)F)cc1)c1sccc1NCc1ccnc2ccccc12 [OSI-930]
Score (sum of observed SD values for 18 genes) [1]: −0.3 SD

COC1=CC(c2cc3ccccc3[nH]2)=N/C1=C\c1[nH]c(C)cc1C [Obatoclax mesylate]
Score (sum of observed SD values for 18 genes) [1]: −10.02 SD

O=C(c1cc(Cc2n[nH]c(=O)c3ccccc23)ccc1F)N1CCN(C(=O)C2CC2)CC1 [Olaparib]
Score (sum of observed SD values for 18 genes) [1]: −19.18 SD

C[C@](O)(COc1ccc(C#N)cc1)C(=O)Nc1ccc(C#N)c(C(F)(F)F)c1 [Ostarine]
Score (sum of observed SD values for 18 genes) [1]: −14.47 SD

C=CCc1cccc(/C=N/NC(=O)CN2CCN(Cc3ccccc3)CC2)c1O [PAC - 1]
Score (sum of observed SD values for 18 genes) [1]: −13.56 SD

CN(C)Cc1c(C(=O)NCCOc2ccc(C(=O)NO)cc2)oc2ccccc12 [PCI-24781]
Score (sum of observed SD values for 18 genes) [1]: -54.91 SD
synergy / antagonism of drug with gene knockdowns, in words [2]: mostly synergistic
number of genes (of 18) whose knockdown synergizes with the drug [3]: 12 genes

CCN(CC)CCCCNc1ncc2cc(-c3cc(OC)cc(OC)c3)c(NC(=O)NC(C)(C)C)nc2n1 [PD173074]
Score (sum of observed SD values for 18 genes) [1]: −46.63 SD
synergy / antagonism of drug with gene knockdowns, in words [2]: significant synergy with nine or more genes

O=C(NOC[C@H](O)CO)c1ccc(F)c(F)c1Nc1ccc(I)cc1F [PD0325901]
Score (sum of observed SD values for 18 genes) [1]: −37.42 SD

CS(=O)(=O)c1cccc(CNc2nc(Nc3ccc4c(c3)CCC(=O)N4)ncc2C(F)(F)F)c1 [PF 573228]
Score (sum of observed SD values for 18 genes) [1]: −28.79 SD

CN(c1ncccc1CNc1nc(Nc2ccc3c(c2)CC(=O)N3)ncc1C(F)(F)F)S(C)(=O)=O [PF - 562271]
Score (sum of observed SD values for 18 genes) [1]: −17.41 SD

O=C(Nc1cccnc1)N1CCC(Cc2cccc(Oc3ccc(C(F)(F)F)cn3)c2)CC1 [PF-3845]
Score (sum of observed SD values for 18 genes) [1]: -51.78 SD

CC(=O)NCC(=O)N1[C@@H]2CC[C@H]1c1ccc(Nc3ncc(C(F)(F)F)c(NC4CCC4)n3)cc12 [PF-03814735]
Score (sum of observed SD values for 18 genes) [1]: −30.13 SD
synergy / antagonism of drug with gene knockdowns, in words [2]: significant synergy

OCCn1cc(-c2cnc3nnn(Cc4ccc5ncccc5c4)c3n2)cn1 [PF-04217903]
Score (sum of observed SD values for 18 genes) [1]: −6.89 SD

CNC(=O)c1ccc(C)c(-n2c(C)cc(OCc3ccc(F)cc3F)c(Br)c2=O)c1 [PH-797804]
Score (sum of observed SD values for 18 genes) [1]: -64.86 SD
number of genes (of 18) whose knockdown synergizes with the drug [3]: 14 genes

Cc1[nH]c(/C=C2\C(=O)Nc3ccc(S(=O)(=O)Cc4c(Cl)cccc4Cl)cc32)c(C)c1C(=O)N1CCC[C@@H]1CN1CCCC1 [PHA-665752]
Score (sum of observed SD values for 18 genes) [1]: −13.95 SD

CC(C)CC(=O)Nc1[nH]nc2c1CN(C(=O)C1CCN(C)CC1)C2(C)C [PHA-793887]
Score (sum of observed SD values for 18 genes) [1]: −42.75 SD
synergy / antagonism of drug with gene knockdowns, in words [2]: strong synergies with multiple genes

Oc1cccc(-c2nc(N3CCOCC3)c3oc4ncccc4c3n2)c1 [PI-103]
Score (sum of observed SD values for 18 genes) [1]: -56.96 SD
synergy / antagonism of drug with gene knockdowns, in words [2]: synergy to the vast majority of genes

Cc1ccc([N+](=O)[O-])cc1S(=O)(=O)N(C)/N=C/c1cnc2ccc(Br)cn12 [PIK-75]
Score (sum of observed SD values for 18 genes) [1]: −19.42 SD

COc1ccc2c(c1OC)N=C(NC(=O)c1cccnc1)N1CCN=C21 [PIK-90]
Score (sum of observed SD values for 18 genes) [1]: −44.52 SD

CC(=O)Nc1nc(C)c(-c2ccc(Cl)c(S(=O)(=O)NCCO)c2)s1 [PIK-93]
Score (sum of observed SD values for 18 genes) [1]: −20.62 SD
